Data reported in patent publication US20250346579A1, “PYRIDAZINONE COMPOUND AND PREPARATION METHOD THEREFOR, PHARMACEUTICAL COMPOSITION THEREOF, AND APPLICATION THEREOF” (CHINA PHARMACEUTICAL UNIVERSITY, priority 2021, published 2025).
Like-named read-outs stand apart in the source and are kept apart here.

Tests used:
[1] = Pharmacokinetic study in SD rats; format: in vivo; settings: for AUC / Cmax / clearance / half-life: male, rat, supernatant of centrifuged blood
Description: (§1) Experimental process: 12 male SD rats were selected, 6 of the rats were orally administrated (3 of them were administered with RBN-2397, and the remaining 3 were administered with I-A-1, at a dose of 10 mg/kg), 6 of the rats were administered intravenously (3 of them were administered with RBN-2397, and the remaining 3 were administered with I-A-1, at a dose of 1 mg/kg), blood samples were collected at 0 min, 2 min, 5 min, 10 min, 20 min, 30 min, 60 min, 2 h, 4 h, 6 h, and 8 h, respectively, and then centrifuged (at 3000 rpm for 5 min), a supernatant was collected and analyzed by LC-MS-MS, and results were analyzed by using WinNonlin Software.

[2] = Pharmacokinetic study in ICR mice; format: in vivo; settings: for AUC / Cmax / clearance / half-life: male, mouse, supernatant of centrifuged blood
Description: as §1, with “ICR mice” for “SD rats”

NCI-H1373 cells = settings: NCI-H1373 xenograft; dose of >30 mg/kg orally once a day; cited from earlier work
[3] = in words, background; cited from earlier work
PARP7 = biological target: T1, PARP7 (Homo sapiens, UniProt Q7Z3E1); test: Inhibitory activity of compounds on PARP7 enzyme (PARP7 Chemiluminescent Assay Kit); format: biochemical
T1 construct: purchased BPS Bioscience
T1 sequence (Q7Z3E1 1-657): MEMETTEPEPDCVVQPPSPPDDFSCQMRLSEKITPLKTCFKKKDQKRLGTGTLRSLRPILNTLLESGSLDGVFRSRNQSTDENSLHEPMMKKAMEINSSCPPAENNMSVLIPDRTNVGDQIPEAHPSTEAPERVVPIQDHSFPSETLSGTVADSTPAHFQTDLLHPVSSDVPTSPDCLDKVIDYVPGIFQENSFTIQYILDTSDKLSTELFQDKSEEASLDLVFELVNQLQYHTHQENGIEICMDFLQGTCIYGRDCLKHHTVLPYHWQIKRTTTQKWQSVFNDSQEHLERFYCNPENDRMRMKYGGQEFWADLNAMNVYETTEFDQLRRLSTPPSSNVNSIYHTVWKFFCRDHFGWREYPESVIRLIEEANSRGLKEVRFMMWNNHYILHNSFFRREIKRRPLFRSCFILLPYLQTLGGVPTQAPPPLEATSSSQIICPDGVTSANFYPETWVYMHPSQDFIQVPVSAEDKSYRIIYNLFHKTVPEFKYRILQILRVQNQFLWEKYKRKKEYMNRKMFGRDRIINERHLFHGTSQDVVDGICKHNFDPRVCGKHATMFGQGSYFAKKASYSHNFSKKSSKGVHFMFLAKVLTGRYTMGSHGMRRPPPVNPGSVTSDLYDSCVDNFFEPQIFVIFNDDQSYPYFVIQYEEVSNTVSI
Description: Experimental materials: PARP7 Chemiluminescent Assay Kit, BPS Bioscience; DMSO, China National Pharmaceutical Group, Nivo, PerkinElmer.
(1) Preparation of Solutions and Buffers:
Preparation of 10×PBS: 720 mg of KH2PO4, 45 g of NaCl and 5.311 g of Na2HPO4·12H2O were weighed respectively and dissolved in 500 mL of deionized water, a system pH value was adjusted to 7.4, sterilization was performed at 121° C. for 30 min, and the system after cooling was placed at 4° C. for later use.
Preparation of 1×PBS: 10×PBS was diluted 10 times with deionized water, that is, 9 parts of deionized water was added to 1 part of 10×PBS for dilution.
Preparation of wash buffer: 1×PBS contained 0.05% Tween-20.
Preparation of 1×PARP buffer (prepared freshly before use): 10×PARP buffer was diluted 10 times with deionized water and placed on ice for later use.
(2) Preparation of Compound Working Solution Concentration:
According to test requirements, a compound to be tested is diluted with 100% DMSO to a desired concentration, and then diluted 10 times with 1×PARP buffer to prepare a 10× compound working solution.
a. 5× histone mixture was thawed on ice one day prior to the experiment;
b. preparation of 1× histone mixture: 1× histone mixture was prepared through the 5× histone mixture by using 1×PBS; and 25 μL of 1× histone mixture was taken from each well and transferred into a test well plate and incubated overnight at 4° C.;
c. 100 μL of Blocking buffer was taken from each well and added to the test well plate and incubated for 90 min at 25° C.;
d. after the incubation was completed, the liquid in the test well plate was spin-dried, and the test well plate was washed repeatedly for 3 times;
e. 2.5 μL of the compound working solution was taken from each well and added to the test well plate according to an experimental layout diagram; and 1×PARP buffer with a corresponding volume of 10% DMSO was added to positive control wells (Positive Control), and 1×PARP buffer of a corresponding volume was added to blank control wells (Blank);
f. after the enzyme was completely dissolved, an enzyme stock solution was diluted with 1×PARP buffer to 6 ng/μL;
g. 10 μL of enzyme solution was taken from each well and added to the test well plate, the blank control wells were added with the corresponding volume of 1×PARP buffer, and in which case, the enzyme amount was 60 ng per well. Note: this step needs to be performed on ice;
h. 12.5 μL of master mixture was added to each well of the test well plate (12.5 μL master mixture included 1.25 μL of 10×PARP buffer, 1.25 μL of Opti-PARP 10× Assay mixture and 10 μL of water); the test well plate was sealed and incubated at 25° C. for 60 min;
i. after the incubation was completed, the liquid in the test well plate was spin-dried, and the test well plate was washed repeatedly for 3 times;
j. Streptavidin-HRP in a kit was diluted 50 times with a Blocking buffer, 25 μL was taken from each well and added to the test well plate, and incubated at 25° C. for 30 min;
k. after the incubation was completed, the liquid in the test well plate was spin-dried, and the test well plate was washed repeatedly for 3 times;
l. ELISA ECL Substrate A and ELISA ECL Substrate B in the kit was mixed to obtain a mixed solution according to a ratio of 1:1, 50 μL of the mixed solution was added to each well of the test well plate, Nivo was used to perform Luminescence detection immediately, and a luminous value (RLU) was read; and
m. calculation of an enzyme rate: Enzyme Activity=(RLU(Sample)−RLU(Blank))/(RLU(Pos.Ctrl)−RLU(Blank))×100%; and enzyme inhibition rate=1−% Enzyme Activity, and specific results were shown in Table 1 below.

CT26 cells = test: In vivo pharmacodynamic study, CT26 subcutaneous tumors in BALB/c mice
Text: BALB/c mice were subcutaneously inoculated with CT26 cells in the right abdominal skin to develop tumors. Four days after tumor inoculation, 24 mice having a tumor size ranging from 55-75 mm^3 (with an average tumor size of 63 mm^3) were selected and randomly divided into 4 groups based on their tumor volumes, with 6 mice in each group. Drug administration was started on the day following random grouping (the day of random grouping was identified as Day 0), a carrier (0.5% of methyl cellulose+0.2% of Tween 80), Compound RBN-2397 (500 mg/kg, once a day, intragastric administration for 14 consecutive days), Compound I-A-1 (100 mg/kg, once a day, intragastric administration for 14 consecutive days), Compound I-A-1 (50 mg/kg, twice a day, intragastric administration for 14 consecutive days) were administered respectively, and the tumor size was measured three times per week during an administration period.

Work on `C[C@@H](COCCC(=O)N1CCN(c2ncc(C(F)(F)F)cn2)CC1)Nc1cn[nH]c(=O)c1C(F)(F)F` [RBN-2397, reference compound] yielded a CL ([1]; PO 10 mg/kg) of 381.342 mL/min/kg, an F ([1]; PO 10 mg/kg) of 12.4% and an AUC ([1]; IV 1 mg/kg) of 333 ng·h/mL. For the same molecule, the Cmax ([1]; IV 1 mg/kg) was 836 ng/mL, the clearance ([1]; IV 1 mg/kg) was 50.6 mL/min/kg and the half-life ([1]; IV 1 mg/kg) was 0.28 h. It also gave an AUC ([1]; PO 10 mg/kg) of 415 ng·h/mL, a Cmax ([1]; PO 10 mg/kg) of 295 ng/mL and a half-life ([1]; PO 10 mg/kg) of 0.75 h. For the same molecule, the F ([2]; PO 10 mg/kg) was 25.67%, the AUC ([2]; IV 1 mg/kg) was 256 ng·h/mL and the Cmax ([2]; IV 1 mg/kg) was 757 ng/mL. For the same molecule, the clearance ([2]; IV 1 mg/kg) was 67 mL/min/kg, the half-life ([2]; IV 1 mg/kg) was 0.15 h and the AUC ([2]; PO 10 mg/kg) was 656 ng·h/mL. For the same molecule, the Cmax ([2]; PO 10 mg/kg) was 1310 ng/mL, the half-life ([2]; PO 10 mg/kg) was 0.9 h and the anti-tumor effects (NCI-H1373 cells) was “significant anti-tumor effects”. The “drug exposure and oral bioavailability in vivo” value [3] was “low” and the “in vivo clearance rate” value [3] was “high”.

`C[C@@H](CN1CC(C(=O)N2CCN(c3ncc(C(F)(F)F)cn3)CC2)C1)Nc1cn[nH]c(=O)c1C(F)(F)F` [I-A-1, (S)-4-(trifluoromethyl)-5-((1-(3-(4-(5-(trifluoromethyl)pyrimidin-2-yl)piperazine-1-carbonyl)azetidin-1-yl)propan-2-yl)amino)pyridazin-3(2H)-one] gave an IC50 (PARP7; chemiluminescence, symbols defined as IC50 classes, read-out: 100 nM Inhibition Rate) of under 100 nM, an IC50 (PARP7; summary of Table 1, read-out: enzyme inhibition IC50 values) of under 100 nM and a CL ([1]; PO 10 mg/kg) of 62.9522 mL/min/kg. For the same molecule, the F ([1]; PO 10 mg/kg) was 46.8%, the pharmacokinetic properties ([1]; in words) was “good pharmacokinetic properties” and the AUC ([1]; IV 1 mg/kg) was 548 ng·h/mL. For the same molecule, the Cmax ([1]; IV 1 mg/kg) was 333 ng/mL, the clearance ([1]; IV 1 mg/kg) was 30.4 mL/min/kg and the half-life ([1]; IV 1 mg/kg) was 1.72 h. It also gave an AUC ([1]; PO 10 mg/kg) of 2560 ng·h/mL, a Cmax ([1]; PO 10 mg/kg) of 564 ng/mL and a half-life ([1]; PO 10 mg/kg) of 2.57 h. The F ([2]; PO 10 mg/kg, 10 mg/kg) was 95.80%, the pharmacokinetic properties ([2]; in words) was “good pharmacokinetic properties” and the AUC ([2]; IV 1 mg/kg) was 591 ng·h/mL. The Cmax ([2]; IV 1 mg/kg) was 419 ng/mL, the clearance ([2]; IV 1 mg/kg) was 29 mL/min/kg and the half-life ([2]; IV 1 mg/kg) was 1.44 h. The AUC ([2]; PO 10 mg/kg) was 5660 ng·h/mL, the Cmax ([2]; PO 10 mg/kg) was 2300 ng/mL and the half-life ([2]; PO 10 mg/kg) was 1.74 h. For the same molecule, the anti-tumor activity (CT26 cells; 100 mg/kg once a day or 50 mg/kg twice a day, intragastric, 14 days, FIG. 2) was “significant anti-tumor activity” and the “anti-tumor effect compared with the positive drug RBN-2397” value (CT26 cells; I-A-1 100 mg/kg/day vs RBN-2397 500 mg/kg once a day) was “better anti-tumor effect at a lower dose”.
